Measurements taken from patent US20230232830A1, “METHOD FOR REDUCING OR PREVENTING EFFECT OF NON-BIOLOGICAL STRESS ON PLANT” (NIPPON SODA CO., LTD., priority 2020, published 2023).

What was measured:
soybean = assay: Bioassay 1, drought stress, soybean test (foliage spray, degree of withering); assay type: in vivo; settings: 200 ppm foliage spray; for Withering Index: 2 to 3 leaf stage, 2 days at 25° C., aerial parts cut out, four stages (0: healthy to 3: complete withering), average of test series
Procedure: (§1) A 5-membered heterocyclyl compound dissolved in DMF was diluted with water so that the concentration of the compound was 200 ppm, and a sufficient amount of the diluted solution was foliage-sprayed on corn and soybean at the 2 to 3 leaf stage.
(§2) Corn and soybean foliage-sprayed with a sufficient amount of a diluted solution prepared by removing the compound were used as the untreated plot.
(§3) The sprayed test plants were cultivated for 2 days under the conditions of a temperature of 25° C. and a day length of 14 hours.
(§4) The aerial parts were cut out and the corn or soybean of the untreated plot was left to stand until completely withered. The degree of withering was investigated from the perspective of four stages (0: healthy to 3: complete withering).
Here, with respect to soybean, complete withering refers to a state in which all the leaves of the soybean are withered and the upper part is curved.
(§5) Abscisic acid was used as a control. Abscisic acid (ABA), known as a plant hormone, is produced by the plant itself and is known as an important signal substance that closes the stomata during drought stress to suppress excessive transpiration of water from the leaves, and induces stress tolerance.
The index of ABA indicates the average of the results of a series of 10 tests. The index of the 5-membered heterocyclyl compound (F) indicates the average of the results of a series of 2 tests.

corn = assay: Bioassay 1, drought stress, corn test (foliage spray, degree of withering); assay type: in vivo; settings: 200 ppm foliage spray; for Withering Index: 2 to 3 leaf stage, 2 days at 25° C., aerial parts cut out, four stages (0: healthy to 3: complete withering), average of test series
Procedure: as §1, §2, §3, §4
As for corn, it refers to a bent state.
as §5
The index of ABA indicates the average of the results of a series of 10 tests. The index of the 5-membered heterocyclyl compounds (A) to (F) indicates the average of the results of a series of 2 tests.

Arabidopsis thaliana = assay: Bioassay 2, salt stress, survival of Arabidopsis thaliana plants in 150 mM NaCl; assay type: in vivo; settings: 168 h, 5 ppm compound for 1 day, then 150 mM NaCl for 7 days, green individuals alive, yellowed or bleached dead, read-out: Survival Rate (%)
Procedure: Arabidopsis thaliana seeds were sterilized with 70% ethanol and then sown in a petri dish containing HYPONeX (sterilized) diluted 4,000 times with water. The compound was diluted with sterile water so that the concentration of the compound dissolved in DMSO was 5 ppm. 65 μl of each drug solution was dispensed into a 96-well microplate, into which 5 Arabidopsis thaliana plants on their 8th day of sowing were placed and left to stand for 1 day. The next day, the plants were transferred to a well containing 65 μl of 150 mM NaCl and cultured for 7 days. The treatment was performed in two series, and in the investigation, a stereomicroscope was used to determine their survival, with the green individuals identified as alive and the yellowed or bleached individuals as dead.

| SMILES | Withering Index (corn) | responders at 5 ppm (Arabidopsis thaliana) [%] | further results |
| --- | --- | --- | --- |
| O=c1cc(OCc2ccc(-c3noc(C(F)(F)F)n3)cc2)ccn1CC1CC1 [Compound 4] |  |  | Withering Index (soybean): 1.5; melting point: 115 to 117 °C |
| COc1cncn(Cc2ccc(-c3noc(C(F)(F)F)n3)cc2)c1=O [Compound 10] | 1.0 |  | melting point: 119 to 120 °C |
| O=C(NC1CC1)c1ccn(Cc2ccc(-c3noc(C(F)(F)F)n3)cc2)n1 [K] | 1.0 |  |  |
| COCCn1cccc(OCc2ccc(-c3noc(C(F)(F)F)n3)cc2)c1=O [Compound 11] | 1.0 |  | melting point: 127 to 130 °C |
| CON=C(C)c1ccc(C2=NOC(OC)(C(F)(F)F)C2)cc1 (centres unmarked) [Compound 9] | 1.5 |  | melting point: 80 to 82 °C |
| Cc1nc(C)n(Cc2ccc(-c3noc(C(F)(F)F)n3)cc2)c(=O)c1Cl [H] | 1.5 |  |  |
| O=C1CCCCN1Cc1ccc(-c2noc(C(F)(F)F)n2)cc1 [M] |  | 70 |  |
| N#CCON=C1CN(C(=O)Cc2ccc(-c3noc(C(F)(F)F)n3)cc2)C1 [A] | 1.5 |  |  |
| CCON=C1CN(C(=O)C(OC)c2ccc(-c3noc(C(F)(F)F)n3)cc2F)C1 (centres unmarked) [Compound 1] |  | 80 |  |
| FC(F)(F)c1nc(-c2ccc(COc3cc(Cl)ncn3)cc2)no1 [Compound 6] | 1.0 |  | melting point: 144 to 146 °C |
| FC(F)(F)c1nc(-c2ccc(COc3cc(-n4cncn4)ncn3)cc2)no1 [Compound 7] |  | 70 |  |
| O=c1cccnn1Cc1ccc(-c2noc(C(F)(F)F)n2)cc1 [C] | 1.5 |  |  |
| O=C(c1ccc(-c2noc(C(F)(F)F)n2)cc1)N1CCCCC1 [D] | 1.5 | 80 |  |
| CCOC(=O)c1ccnn1Cc1ccc(-c2noc(C(F)(F)F)n2)cc1 [L] |  |  | Withering Index (soybean): 1.5 |
| CCON=C1CN(C(=O)C(OC)c2ccc(-c3noc(C(F)(F)F)n3)cc2)C1 (centres unmarked) [B] | 1.5 |  |  |
| CC1(NC(=O)c2ccc(-c3noc(C(F)(F)F)n3)cc2)CC1 [E] | 1.5 |  |  |
| CC1=CC(=O)CC(C)(C)[C@@]1(O)/C=C/C(C)=C\C(=O)O [ABA, Abscisic acid, reference compound] | 1.1 |  | Withering Index (soybean): 0.5 |
| O=c1c(Cl)c(Cl)cnn1Cc1ccc(-c2noc(C(F)(F)F)n2)cc1 [J] | 1.0 |  |  |
| CCON=C1CN(C(=O)C(C)c2ccc(-c3noc(C(F)(F)F)n3)cc2)C1 (centres unmarked) [G] |  | 80 |  |
| C=CCON=C1CN(C(=O)Cc2ccc(-c3noc(C(F)(F)F)n3)cc2)C1 [Compound 2] |  | 70 |  |
| O=C(NC12CC(C1)C2)c1ccc(-c2noc(C(F)(F)F)n2)cc1 [F] | 0.5 |  | reduction of drought stress compared with ABA (corn; result in words): showed an index higher than that of ABA; Withering Index (soybean): 1.5; reduction of drought stress compared with ABA (soybean; result in words): reduces the drought stress, although to a lesser extent than ABA |
| CSc1nccc(OCc2ccc(-c3noc(C(F)(F)F)n3)cc2)n1 [Compound 5] |  | 80 |  |
| CON=C1CN(c2cc(=O)n(Cc3ccc(-c4noc(C(F)(F)F)n4)cc3)cn2)C1 [Compound 3] |  | 70 |  |
| CC(=NOC/C=C/Cl)c1ccc(C2=NOC(O)(C(F)(F)F)C2)cc1 (centres unmarked) [Compound 8] | 1.5 |  | melting point: 126 to 128 °C |
